target: T1, recombinant human glucokinase (Homo sapiens, UniProt P35557); assay: Assay 2: Evaluating Activator Potency in a Matrix Assay at Multiple Glucose Concentrations; type: biochemical; conditions: Assay 2 matrix assay; 16 glucose concentrations; intrinsic EC50 = concentration affording a 50% reduction in the enzyme's Km (for glucose); read-out: Glucokinase EC50
T1 construct: Full-length glucokinase (beta cell isoform) was His-tagged at the N-terminus and purified by a Ni column followed by size exclusion chromatography as described above; His tag; made in house; host or cells: E. coli BL21(DE3), vector pBCGK
T1 sequence (P35557 1-465): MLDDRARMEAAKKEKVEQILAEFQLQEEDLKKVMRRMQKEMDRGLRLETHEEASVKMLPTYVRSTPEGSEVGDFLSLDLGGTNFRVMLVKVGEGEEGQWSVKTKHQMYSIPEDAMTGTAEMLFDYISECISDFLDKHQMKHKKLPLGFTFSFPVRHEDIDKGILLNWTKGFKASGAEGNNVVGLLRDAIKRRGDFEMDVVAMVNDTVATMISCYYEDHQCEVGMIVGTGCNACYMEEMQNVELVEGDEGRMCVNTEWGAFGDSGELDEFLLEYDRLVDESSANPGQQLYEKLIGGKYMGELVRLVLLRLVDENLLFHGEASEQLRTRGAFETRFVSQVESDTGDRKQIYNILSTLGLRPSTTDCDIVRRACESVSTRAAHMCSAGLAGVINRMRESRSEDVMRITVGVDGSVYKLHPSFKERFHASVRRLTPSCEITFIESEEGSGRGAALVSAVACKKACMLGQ
Experimental: Representative compounds of this invention were evaluated in biochemical assays (Assay 1 or Assay 2) to characterize their glucokinase activation properties.
The recombinant human glucokinase protein utilized in both assays was prepared and purified as described below.
BL21(DE3) cells (Invitrogen Corporation, Carlsbad, Calif.) containing pBCGK (C or N H is) vector were grown at 37° C. (in 2XYT) until the OD600 was between 0.6-1.0. Expression was induced by addition of isopropylthiogalactoside to a final concentration of 0.1-0.2 mM to the cells which were then incubated overnight at 23° C. The next day, cells were harvested via centrifugation at 5000 rpm for 15 minutes at 4° C. The cell pellet was stored at −80° C. for future purification.
Beta Cell Glucokinase His-Taq Purification Conditions: A Ni-NTA (Quigan, Germantown, Md.) column (15-50 mL) was used for separation. Two buffers were prepared, 1) a lysis/nickel equilibration and wash buffer and 2) a nickel elution buffer. The lysis/equilibration/wash buffer was prepared as such: 25 mM HEPES buffer at pH 7.5, 250 mM NaCl, 20 mM imidazole, and 14 mM β-mercaptoethanol as final concentrations. The elution buffer was prepared as such: 25 mM HEPES at pH 7.5, 250 mM NaCl, 400 mM imidazole, and 14 mM β-mercaptoethanol as final concentrations. The buffers were each filtered with a 0.22 μm filter prior to use. The cell pellet (1 L culture) was resuspended in 300 mL of the lysis/equilibration buffer. The cells were then lysed (3 times) with a Microfluidics Model 110Y microfluidizer (Microfluidics Corporation, Newton, Mass.). The slurry was centrifuged with a Beckman Coulter Model LE-80K ultracentrifuge (Beckman Coulter, Fullerton, Calif.) at 40,000 rpm for 45 minutes at 4° C. The supernatant was transferred to a chilled flask. A volume of 20 μl was saved for gel analysis. A Pharmacia AKTA (GMI, Inc., Ramsey, Minn.) purification system was used for separation. The prime lines were purged with lysis/equilibration buffer. The Ni-NTA column was equilibrated with 200 mL of the lysis/equilibration buffer at a flow rate of 5 mL/minute. The supernantant was loaded over the column at 4 mL/minute and the flow-through was collected in a flask. The unbound proteins were washed with lysis/equilibration buffer at a flow rate of 5 mL/minute until the ultraviolet reaches baseline. The protein was then eluted from the column with the imidazole elution buffer via imidazole gradient 20 mM to 400 mM over 320 mL. The column was then stripped of any additional protein with 80 mL of the elution buffer. The elution fractions were each 8 mL, for a total yield of 50 samples. Fractions were analyzed by sodium dodecyl sulfate polyacrylamide (SDS-PAGE) and the fractions containing protein of interest were pooled and concentrated to 10 mL using ultrafiltration cell with a 10,000 molecular weight cut-off (MWCO) Millipore membrane (Sigma-Aldrich, St. Louis, Mo.) under nitrogen gas (60 psi). Protein was further purified by size exclusion chromatography (SEC) using a […] (320 mL) (Amersham Pharmacia, Uppsala, Sweden). SEC was equilibrated with 450 mL sizing buffer containing 25 mM HEPES pH 7.0, 50 mM NaCl, and 5 mM dithiothreitol. Concentrated protein was then loaded over SEC and elution with 400 mL sizing buffer was performed overnight at 0.5 mL/minute. The elution fractions were 5 mL each. The fractions were analyzed by SDS-PAGE and protein containing fractions were pooled. Concentration was measured using Bradford Assay/BSA Standard. Purified protein was stored in small aliquots at −80° C.
Assay 2: Evaluating Activator Potency in a Matrix Assay at Multiple Glucose Concentrations
Utilizing an adaptation of this method, representative compounds of the current invention were evaluated at 22 different concentrations and 16 different glucose concentrations in a coupled enzyme assay system that detects glucokinase activity via depletion of β-NADH.

Row | SMILES | EC50
1 | CCn1cc2c(Oc3cnc(NS(C)(=O)=O)cn3)cc(C(=O)Nc3ccc(C)cn3)cc2n1 [Example 1AT, 2-ethyl-N-(5-methylpyridin-2-yl)-4-({5-[(methylsulfonyl)amino]pyrazin-2-yl}oxy)-2H-indazole-6-carboxamide] | 4920 nM
2 | Cn1ccc(NC(=O)c2cc(Oc3ccc(S(N)(=O)=O)cc3)c3cn(C)nc3c2)n1 [Example 1AU, 4-[4-(aminosulfonyl)phenoxy]-2-methyl-N-(1-methyl-1H-pyrazol-3-yl)-2H-indazole-6-carboxamide] | 6220 nM
3 | CCn1cc2c(Oc3ccc4c(c3)CCS4(=O)=O)cc(C(=O)Nc3ccc(C)cn3)cc2n1 [Example 1AW, 4-[(1,1-dioxido-2,3-dihydro-1-benzothien-5-yl)oxy]-2-ethyl-N-(5-methylpyridin-2-yl)-2H-indazole-6-carboxamide] | 986 nM
4 | CCOc1cnc(NC(=O)c2cc(Oc3ccc(S(N)(=O)=O)cc3)c3cn(CC)nc3c2)cn1 [Example 1BI, 4-[4-(aminosulfonyl)phenoxy]-N-(5-ethoxypyrazin-2-yl)-2-ethyl-2H-indazole-6-carboxamide] | 49900 nM
5 | CN(C)S(=O)(=O)c1ccc(Oc2cc(C(=O)Nc3ccn(C)n3)cc3nn(C)cc23)cc1 [Example 1BK, 4-{4-[(dimethylamino)sulfonyl]phenoxy}-2-methyl-N-(1-methyl-1H-pyrazol-3-yl)-2H-indazole-6-carboxamide] | 1010 nM
6 | CNS(=O)(=O)c1ccc(Oc2cc(C(=O)Nc3ccn(C)n3)cc3nn(C)cc23)cc1 [Example 1BL, 2-methyl-4-{4-[(methylamino)sulfonyl]phenoxy}-N-(1-methyl-1H-pyrazol-3-yl)-2H-indazole-6-carboxamide] | 1800 nM
7 | CCn1ccc(NC(=O)c2cc(Oc3ccc(S(C)(=O)=O)cc3)c3cn(CC)nc3c2)n1 [Example 1BM, 2-ethyl-N-(1-ethyl-1H-pyrazol-3-yl)-4-[4-(methylsulfonyl)phenoxy]-2H-indazole-6-carboxamide] | 1900 nM

The remaining lines, values ahead:

Row | EC50 | SMILES
8 | 817 nM | Cc1ccc(NC(=O)c2cc(Oc3ccc4c(c3)CCS4(=O)=O)c3cn(C)nc3c2)nc1 [Example 1AV, 4-[(1,1-dioxido-2,3-dihydro-1-benzothien-5-yl)oxy]-2-methyl-N-(5-methylpyridin-2-yl)-2H-indazole-6-carboxamide]
9 | 684 nM | CNS(=O)(=O)c1ccc(Oc2cc(C(=O)Nc3cnc(OC)cn3)cc3nn(C)cc23)cc1 [Example 1BN, N-(5-methoxypyrazin-2-yl)-2-methyl-4-{4-[(methylamino)sulfonyl]phenoxy}-2H-indazole-6-carboxamide]
10 | 673 nM | CCS(=O)(=O)N(C)c1cnc(Oc2cc(C(=O)Nc3ccc(C)cn3)cc3nn(C)cc23)cn1 [Example 1AY, 4-({5-[(ethylsulfonyl)(methyl)amino]pyrazin-2-yl}oxy)-2-methyl-N-(5-methylpyridin-2-yl)-2H-indazole-6-carboxamide]
11 | 567 nM | CCn1cc2c(Oc3ccc(S(C)(=O)=O)cc3)cc(C(=O)Nc3cnc(OC)cn3)cc2n1 [Example 1AX, 2-ethyl-N-(5-methoxypyrazin-2-yl)-4-[4-(methylsulfonyl)phenoxy]-2H-indazole-6-carboxamide]
12 | 545 nM | Cc1ccc(NC(=O)c2cc(Oc3ccc(S(C)(=O)=O)cc3C(F)(F)F)c3cn(C)nc3c2)nc1 [Example 1AR, 2-methyl-N-(5-methylpyridin-2-yl)-4-[4-(methylsulfonyl)-2-(trifluoromethyl)phenoxy]-2H-indazole-6-carboxamide]
13 | 536 nM | CCc1cnc(NC(=O)c2cc(Oc3ccc(S(C)(=O)=O)cc3)c3cn(CC)nc3c2)cn1 [Example 1BH, 2-ethyl-N-(5-ethylpyrazin-2-yl)-4-[4-(methylsulfonyl)phenoxy]-2H-indazole-6-carboxamide]
14 | 456 nM | COc1cnc(NC(=O)c2cc(Oc3cnc(C(=O)N(C)C)c(F)c3)c3cn(C)nc3c2)cn1 [Example 1BE, 4-(6-(dimethylcarbamoyl)-5-fluoropyridin-3-yloxy)-N-(5-methoxypyrazin-2-yl)-2-methyl-2H-indazole-6-carboxamide]
15 | 383 nM | CCn1cc2c(Oc3cnc(C(=O)N(C)C)nc3)cc(C(=O)Nc3ccc(C)cn3)cc2n1 [Example 1BD, 4-(2-(dimethylcarbamoyl)pyrimidin-5-yloxy)-2-ethyl-N-(5-methylpyridin-2-yl)-2H-indazole-6-carboxamide]
16 | 368 nM | Cc1cnc(NC(=O)c2cc(Oc3cnc(C(=O)N4CCC4)c(F)c3)c3cn(C)nc3c2)cn1 [Example 1BC, 4-(6-(azetidine-1-carbonyl)-5-fluoropyridin-3-yloxy)-2-methyl-N-(5-methylpyrazin-2-yl)-2H-indazole-6-carboxamide]
17 | 290 nM | CCn1cc2c(Oc3cnc(C(=O)N4CCCC4)cn3)cc(C(=O)Nc3cnc(C)cn3)cc2n1 [Example 1BP, 2-ethyl-N-(5-methylpyrazin-2-yl)-4-(5-(pyrrolidine-1-carbonyl)pyrazin-2-yloxy)-2H-indazole-6-carboxamide]
18 | 250 nM | Cn1ccc(NC(=O)c2cc(Oc3cnc(C(=O)N4CCCC4)cn3)c3cn(C)nc3c2)n1 [Example 1BO, 2-methyl-N-(1-methyl-1H-pyrazol-3-yl)-4-(5-(pyrrolidine-1-carbonyl)pyrazin-2-yloxy)-2H-indazole-6-carboxamide]
19 | 203 nM | CCOc1cnc(NC(=O)c2cc(Oc3ccc(S(C)(=O)=O)cc3)c3cn(CC)nc3c2)cn1 [Example 1BG, N-(5-ethoxypyrazin-2-yl)-2-ethyl-4-[4-(methylsulfonyl)phenoxy]-2H-indazole-6-carboxamide]
20 | 195 nM | CCn1cc2c(Oc3cnc(C(=O)N(C)C)c(F)c3)cc(C(=O)Nc3cnccn3)cc2n1 [Example 1BB, 4-(6-(dimethylcarbamoyl)-5-fluoropyridin-3-yloxy)-2-ethyl-N-(pyrazin-2-yl)-2H-indazole-6-carboxamide]

same assay, conditions: Glucokinase EC50, Assay 2 matrix assay; 16 glucose concentrations; intrinsic EC50 = concentration affording a 50% reduction in the enzyme's Km (for glucose)

Row | EC50 | SMILES
21 | 108 nM | CCn1cc2c(Oc3cnc(C(=O)N4CCC4)c(F)c3)cc(C(=O)Nc3cnc(C)cn3)cc2n1 [Example 1AZ, 4-(6-(azetidine-1-carbonyl)-5-fluoropyridin-3-yloxy)-2-ethyl-N-(5-methylpyrazin-2-yl)-2H-indazole-6-carboxamide]
22 | 191 nM | CCn1cc2c(Oc3cnc(C(=O)N4CCC4)c(F)c3)cc(C(=O)Nc3ccn(C)n3)cc2n1 [Example 1BA, 4-(6-(azetidine-1-carbonyl)-5-fluoropyridin-3-yloxy)-2-ethyl-N-(1-methyl-1H-pyrazol-3-yl)-2H-indazole-6-carboxamide]

Row | SMILES | EC50
23 | Cc1cnc(NC(=O)c2cc(Oc3ccc(S(N)(=O)=O)cc3)c3cn(C)nc3c2)cn1 [Example 1AS, 4-[4-(aminosulfonyl)phenoxy]-2-methyl-N-(5-methylpyrazin-2-yl)-2H-indazole-6-carboxamide] | 2280 nM
